Results reported in patent EP1229026A1, “ALKOXYIMINOALKANOIC ACID DERIVATIVES” (Takeda Chemical Industries, Ltd., priority 1999, dated 2001).

Tests used:
[1] = target: T1, PPARγ-RXRα heterodimer (Homo sapiens, UniProt P37231); assay: PPARγ-RXRα heterodimer ligand activity (luciferase reporter in PPARγ:RXRα:4ERPP/CHO-K1 cells); assay type: cell-based; details: concentration for 50% of the maximum fold induction of luciferase activity, 48 hours
T1 construct: 1.4 kb DNA fragment containing PPARγ gene was recovered from the gel; expressed in transfected cells; host or cells: CHO-K1
T1 sequence (P37231 1-477 isoform P37231-2): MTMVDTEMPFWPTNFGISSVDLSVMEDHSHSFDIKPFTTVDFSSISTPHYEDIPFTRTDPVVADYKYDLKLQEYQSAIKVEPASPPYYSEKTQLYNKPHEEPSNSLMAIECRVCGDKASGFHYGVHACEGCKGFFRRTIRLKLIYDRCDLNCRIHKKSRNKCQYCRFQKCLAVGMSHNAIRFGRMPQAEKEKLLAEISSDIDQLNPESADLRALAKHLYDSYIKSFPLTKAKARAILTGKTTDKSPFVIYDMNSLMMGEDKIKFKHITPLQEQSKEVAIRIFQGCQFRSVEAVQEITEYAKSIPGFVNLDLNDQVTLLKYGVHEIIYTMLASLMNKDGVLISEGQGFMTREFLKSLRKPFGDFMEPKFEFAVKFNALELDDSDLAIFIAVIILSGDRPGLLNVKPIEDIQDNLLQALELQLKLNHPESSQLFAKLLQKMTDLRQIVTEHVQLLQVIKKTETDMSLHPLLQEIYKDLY
T1 sequence (P19793 1-462 partner): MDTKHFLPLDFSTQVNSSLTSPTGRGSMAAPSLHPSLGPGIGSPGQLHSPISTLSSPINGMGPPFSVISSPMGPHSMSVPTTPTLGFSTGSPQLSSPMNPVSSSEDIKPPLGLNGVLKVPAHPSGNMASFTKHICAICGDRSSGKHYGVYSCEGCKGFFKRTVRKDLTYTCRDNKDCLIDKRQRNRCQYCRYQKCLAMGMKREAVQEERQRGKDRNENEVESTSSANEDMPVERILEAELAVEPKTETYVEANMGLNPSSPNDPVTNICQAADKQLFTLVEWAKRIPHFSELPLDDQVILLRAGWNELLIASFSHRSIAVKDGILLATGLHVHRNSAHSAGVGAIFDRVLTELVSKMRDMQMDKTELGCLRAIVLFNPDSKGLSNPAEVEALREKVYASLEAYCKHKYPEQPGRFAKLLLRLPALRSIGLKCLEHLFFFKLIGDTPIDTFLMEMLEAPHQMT
Procedure: A PPARγ:RXRα:4ERPP/CHO-K1 cells obtained in Reference Example 5 to be described later were cultured in HAM F12 medium (produced by NISSUI PHARMACEUTICAL CO., LTD.) containing 10% fetal bovine serum (produced by Life Technologies, Inc., USA) and then inoculated to a 96-well white plate (produced by Corning Costar Corporation, USA) at the density of 2×10^4 cells/well, and cultured in a CO2 gas incubator at 37°C overnight.
After washing the 96 well white plate with PBS (phosphate-buffered saline), 90 µl of HAM F12 medium containing 0.1% fatty acid-free bovine serum albumin (BSA) and 10 µl of test compound were added, which was followed by culture in a CO2 gas incubator at 37°C for 48 hours. After removing the medium, 40 µl of PIKKAGENE 7.5 (produced by Wako Pure Chemical Industries, Ltd.) was added. After stirring, the luciferase activity was determined using Lumistar (produced by BMG Labtechnologies GmbH, Germany).
A fold induction was calculated based on the luciferase activity of each test compound where the luciferase activity in the test compound non-administration group was taken as 1. The values of the test compound concentration and the fold induction were analyzed using PRISM 2.01 (produced by GraphPad Software Inc., USA) to calculate the EC50 values, the effective concentration of the test compound for 50% of the maximum fold induction. […]

[2] = test system: KKA^y mice; assay: Hypoglycemic and hypolipidemic (hypotriglyceridemic) actions in mice; assay type: in vivo; details: four days; for Hypoglycemic action (%): percent decrease of plasma glucose vs non-administration group (100%); for Hypolipidemic action (%): percent decrease of plasma triglyceride vs non-administration group (100%)
Procedure: Test compounds were mixed in a powdery diet (CE-2, Japan Clea) at the concentration of 0.01% (compound of Example 2) or 0.005% (compound of Example 4), and freely given to KKA^y mice (11 to 12 weeks old, 5 mice per group), a model of obesity and type II diabetes, for four days. During this period, water was given freely. Blood was sampled from orbital venous plexus, and glucose and triglyceride levels in plasma separated from blood were determined enzymatically using L type Wako Glu2 (Wako Pure Chemical Industries, Ltd.) or L type Wako TG•H (Wako Pure Chemical Industries, Ltd.), respectively.

[3] = test system: KKA^y mice; assay: Total cholesterol lowering action and plasma anti-arteriosclerosis index-increasing action in mice; assay type: in vivo; details: 0.005% in powdery diet, four days
Procedure: Test compound was mixed in a powdery diet (CE-2, Japan Clea) at the concentration of 0.005%, and freely given to KKA^y mice (12 weeks old, 5 mice per group), a model of obesity and type II diabetes, for four days. During this period, water was given freely. Blood was sampled from orbital venous plexus and plasma was separated and analyzed for components. Total cholesterol levels were determined using L type Wako Cholesterol (Wako Pure Chemical Industries, Ltd.). Precipitation reagent for apoB containing lipoprotein (Wako Pure Chemical Industries, Ltd.) was added to a part of the plasma to allow precipitation of non-HDL lipoprotein, and cholesterol (HDL cholesterol) in the resulting supernatant was determined. The plasma anti-arteriosclerosis index [(HDL cholesterol/total cholesterol)×100] was calculated using these cholesterol levels.
In the Table, "Total cholesterol lowering action (%)" represents the percent reduction (%) of total cholesterol level in the test compound administration group, when the total cholesterol level in the test compound non-administration group is taken as 100%. "Plasma anti-arteriosclerosis index-increasing action (%)" represents a percent increase (%) of plasma anti-arteriosclerosis index in the test compound administration group, when the plasma anti-arteriosclerosis index in the test compound non-administration group-is taken as 100%.

Row | EC50 [1] | Compound | Hypoglycemic action (%) ([2]; 0.01% in powdery diet) | Hypolipidemic action (%) ([2]; 0.01% in powdery diet) | Plasma anti-arteriosclerosis index-increasing action (%) ([3]; percent increase of index [(HDL cholesterol/total cholesterol)×100] vs non-administration group (100%)) | Total cholesterol lowering action (%) ([3]; percent reduction of total cholesterol level vs non-administration group (100%)) | Hypoglycemic action (%) ([2]; 0.005% in powdery diet) | Hypolipidemic action (%) ([2]; 0.005% in powdery diet)
1 | 1.6 µM | Cc1oc(-c2ccccc2)nc1COc1ccc2cc(CO/N=C(\CCC(=O)O)c3ccccc3)ccc2c1 [Example 2, (E)-4-[6-(5-methyl-2-phenyl-4-oxazolylmethoxy)-2-naphthylmethoxyimino]-4-phenylbutyric acid] | 30% | 22% | – | – | – | –
2 | 0.0014 µM | Cc1oc(-c2ccccc2)nc1COc1ccc(CO/N=C(\CCC(=O)O)c2ccccc2)cn1 [Example 4, (E)-4-[6-(5-methyl-2-phenyl-4-oxazolylmethoxy)-3-pyridylmethoxyimino]-4-phenylbutyric acid] | – | – | 39% | 22% | 54% | 90%
